Measured values taken from article PMC9120017, “Inhibition mechanism of the chloride channel TMEM16A by the pore blocker 1PBC” (Nature Communications, 2022).
pIC50: −log10 of the molar value. Where two headings read alike, the source gives them in different places.

Target: T1, mouse TMEM16A mutant I640A (Mus musculus, UniProt Q8BHY3, I640A)
T1 construct: expressed in transfected cells; host or cells: HEK293T
T1 sequence (Q8BHY3 1-960 I640A): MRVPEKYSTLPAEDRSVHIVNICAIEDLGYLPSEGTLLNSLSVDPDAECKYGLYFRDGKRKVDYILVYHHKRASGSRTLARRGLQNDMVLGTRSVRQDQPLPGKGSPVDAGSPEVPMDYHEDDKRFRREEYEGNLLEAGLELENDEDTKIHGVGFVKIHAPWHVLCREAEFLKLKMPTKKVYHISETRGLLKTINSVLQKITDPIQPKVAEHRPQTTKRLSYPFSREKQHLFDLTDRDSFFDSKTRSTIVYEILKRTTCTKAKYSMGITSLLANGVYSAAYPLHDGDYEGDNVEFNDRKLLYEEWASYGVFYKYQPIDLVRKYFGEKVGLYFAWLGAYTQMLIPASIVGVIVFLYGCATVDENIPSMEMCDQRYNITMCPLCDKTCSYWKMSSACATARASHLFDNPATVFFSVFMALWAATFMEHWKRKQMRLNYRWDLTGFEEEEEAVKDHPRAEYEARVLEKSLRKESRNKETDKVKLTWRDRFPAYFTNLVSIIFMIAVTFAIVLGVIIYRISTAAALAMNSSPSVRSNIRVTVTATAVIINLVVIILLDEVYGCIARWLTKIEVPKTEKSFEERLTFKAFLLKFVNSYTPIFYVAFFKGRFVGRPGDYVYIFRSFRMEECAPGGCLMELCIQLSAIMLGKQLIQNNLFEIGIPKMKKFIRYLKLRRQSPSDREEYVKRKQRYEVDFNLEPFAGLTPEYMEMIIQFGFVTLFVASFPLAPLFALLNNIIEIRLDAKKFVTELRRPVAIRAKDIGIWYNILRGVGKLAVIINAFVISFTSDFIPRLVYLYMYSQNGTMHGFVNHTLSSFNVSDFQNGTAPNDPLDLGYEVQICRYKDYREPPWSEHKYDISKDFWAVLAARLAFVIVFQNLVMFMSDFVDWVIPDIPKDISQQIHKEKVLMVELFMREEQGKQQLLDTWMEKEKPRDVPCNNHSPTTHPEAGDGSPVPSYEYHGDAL
Test: Inside-out patch recording of 1PBC block, mutant I640A
Assay type: cell-based
Details: for remaining activity at 100 µM: 1PBC conc 100; for remaining activity at 100 µM / remaining activity at 3 µM / remaining activity at 10 µM / remaining activity at 30 µM: read-out: relative current in 1PBC (avr); for remaining activity at 3 µM: 1PBC conc 3; for remaining activity at 10 µM: 1PBC conc 10; for remaining activity at 30 µM: 1PBC conc 30
Description: HEK293T cells (ATCC CRL-1573) were maintained in Dulbecco’s modified Eagle’s medium (DMEM; Sigma-Aldrich) supplemented with 10 U ml^−1 penicillin, 0.1 mg ml^−1 streptomycin (Sigma-Aldrich), 2 mM L-glutamine (Sigma-Aldrich), and 10% FBS (Sigma-Aldrich) in a humidified atmosphere containing 5% CO2 at 37 °C. HEK293S GnTI^− cells (ATCC CRL-3022) were maintained in HyClone HyCell TransFx-H medium (GE Healthcare) supplemented with 10 U ml^−1 penicillin, 0.1 mg ml^−1 streptomycin, 4 mM L-glutamine, 0.15% poloxamer 188 (Sigma-Aldrich), and 1% FBS in an atmosphere containing 5% CO2 at 185 rpm at 37 °C. The ac splice variant of mouse TMEM16A (UniProt ID: Q8BHY3), mouse TMEM16B (UniProt ID: Q8CFW1), or mouse TMEM16F (UniProt ID: Q6P9J9) bearing a 3C cleavage site, a Venus YFP, a Myc tag, and a Streptavidin-binding peptide (SBP) downstream of the open reading frame in a modified pcDNA3.1 vector (Invitrogen) were used as described previously[21],[31]. Mutations were introduced using a modified QuikChange method[58] and were verified by sequencing.
HEK293T cells were transfected with 3–4 μg DNA per 6 cm Petri dish using the calcium phosphate co-precipitation method and were used within 24–96 h after transfection. Recordings were performed on inside-out patches excised from HEK293T cells expressing the construct of interest. Patch pipettes were pulled from borosilicate glass capillaries (O.D. 1.5 mm, I.D. 0.86 mm, Sutter Instrument) and were fire-polished with a microforge (Narishige) before use. Pipette resistance was typically 3–8 MΩ when filled with the recording solutions detailed below. Seal resistance was typically 4 GΩ or higher. Voltage-clamp recordings were made using Axopatch 200B, Digidata 1550, and Clampex 10.7 (Molecular Devices). Analog signals were filtered with the in-built 4-pole Bessel filter at 10 kHz and were digitized at 20 kHz. Solution exchange was achieved using a gravity-fed system through a theta glass pipette mounted on an ultra-fast piezo-driven stepper (Siskiyou). […] All recordings were performed at 20 °C.
A symmetrical ionic condition was used throughout. Stock solution with Ca^2+-EGTA contained 150 mM NaCl, 5.99 mM Ca(OH)2, 5 mM EGTA, and 10 mM HEPES at pH 7.40. Stock solution with EGTA contained 150 mM NaCl, 5 mM EGTA, and 10 mM HEPES at pH 7.40. Free Ca^2+ concentrations were adjusted by mixing the stock solutions at the required ratios calculated using the WEBMAXC program (http://web.stanford.edu/~cpatton/webmaxcS.htm). Patch pipettes were filled with the stock solution with Ca^2+-EGTA, which has a free Ca^2+ concentration of 1 mM. 1PBC (ChemBridge) stock was reconstituted in anhydrous DMSO (Sigma-Aldrich) at 100 mM and stored at −20 °C. Working solutions with 1PBC were prepared by serial dilution. Unless otherwise stated, experiments were performed at a saturating Ca^2+ concentration as shown in Supplementary Table 1 and the primary data were corrected for current rundown as described previously[21],[25].
Concentration-response relations, obtained from the ratio of the I-V plots before and after the application of the blocker, were fitted to the Hill equation,1 I/Imax=1/1+IC50/[blocker]^h where I/Imax is the normalized current responses, IC50 defines the concentration at which inhibition is at its half-maximum, and h is the Hill coefficient.

`N#Cc1c(C(F)(F)F)cc(O)n2c1nc1ccccc12` [1PBC] showed a remaining activity at 100 µM (40 mV) of 18.8%, a pIC50 (60 mV, 15 µM Ca2+) of 4.64 and a remaining activity at 3 µM (60 mV) of 89%. The remaining activity at 10 µM (60 mV) was 69.4%, the remaining activity at 30 µM (60 mV) was 44.3% and the remaining activity at 100 µM (60 mV) was 17.7%. For the same compound, the “log-fold IC50 (change of mutant vs WT)” value (80 mV) was 1.079, the pIC50 (80 mV, 15 µM Ca2+) was 4.66 and the remaining activity at 3 µM (80 mV) was 89.4%. For the same compound, the remaining activity at 10 µM (80 mV) was 67.9%, the remaining activity at 30 µM (80 mV) was 43% and the remaining activity at 100 µM (80 mV) was 17.7%. The pIC50 (100 mV, 15 µM Ca2+) was 4.64, the remaining activity at 3 µM (100 mV) was 91.3% and the remaining activity at 10 µM (100 mV) was 69.4%. The remaining activity at 30 µM (100 mV) was 43.1%, the remaining activity at 100 µM (100 mV) was 18% and the pIC50 (120 mV, 15 µM Ca2+) was 4.60. It also gave a remaining activity at 3 µM (120 mV) of 93.7%, a remaining activity at 10 µM (120 mV) of 71.5% and a remaining activity at 30 µM (120 mV) of 45%. For the same compound, the remaining activity at 100 µM (120 mV) was 17.7%, the pIC50 (140 mV, 15 µM Ca2+) was 4.55 and the remaining activity at 3 µM (140 mV) was 96.5%. The remaining activity at 10 µM (140 mV) was 75.3%, the remaining activity at 30 µM (140 mV) was 47.6% and the remaining activity at 100 µM (140 mV) was 18.5%. The pIC50 (-20 mV, 15 µM Ca2+) was 4.44, the remaining activity at 3 µM (-20 mV) was 91.2% and the remaining activity at 10 µM (-20 mV) was 78.5%. For the same compound, the remaining activity at 30 µM (-20 mV) was 55.5%, the remaining activity at 100 µM (-20 mV) was 25.8% and the pIC50 (-40 mV, 15 µM Ca2+) was 4.38. The remaining activity at 3 µM (-40 mV) was 91.5%, the remaining activity at 10 µM (-40 mV) was 80.9% and the remaining activity at 30 µM (-40 mV) was 58.8%. The remaining activity at 100 µM (-40 mV) was 28.8%, the pIC50 (-60 mV, 15 µM Ca2+) was 4.33 and the remaining activity at 3 µM (-60 mV) was 91.7%. The remaining activity at 10 µM (-60 mV) was 83.4%, the remaining activity at 30 µM (-60 mV) was 61.1% and the remaining activity at 100 µM (-60 mV) was 31.4%. For the same compound, the pIC50 (-80 mV, 15 µM Ca2+) was 4.28, the remaining activity at 3 µM (-80 mV) was 92.4% and the remaining activity at 10 µM (-80 mV) was 84.6%. For the same compound, the remaining activity at 30 µM (-80 mV) was 64.1%, the remaining activity at 100 µM (-80 mV) was 34.6% and the pIC50 (-100 mV, 15 µM Ca2+) was 4.22. The remaining activity at 3 µM (-100 mV) was 93.4%, the remaining activity at 10 µM (-100 mV) was 86.7% and the remaining activity at 30 µM (-100 mV) was 66.4%. It also gave a remaining activity at 100 µM (-100 mV) of 37.8%, a pIC50 (-120 mV, 15 µM Ca2+) of 4.18 and a remaining activity at 3 µM (-120 mV) of 93.4%. For the same compound, the remaining activity at 10 µM (-120 mV) was 87.4%, the remaining activity at 30 µM (-120 mV) was 68.3% and the remaining activity at 100 µM (-120 mV) was 40.2%. It also gave a pIC50 (-140 mV, 15 µM Ca2+) of 4.13, a remaining activity at 3 µM (-140 mV) of 93.7% and a remaining activity at 10 µM (-140 mV) of 88.3%. The remaining activity at 30 µM (-140 mV) was 69.4%, the remaining activity at 100 µM (-140 mV) was 44% and the pIC50 (I640A, V 0 mV) was 4.50. It also gave a pIC50 (I640A, V 20 mV) of 4.56, a pIC50 (I640A, V 40 mV) of 4.61 and a pIC50 (I640A, V 60 mV) of 4.64. The pIC50 (I640A, V 80 mV) was 4.65, the pIC50 (I640A, V 100 mV) was 4.64 and the pIC50 (I640A, V 120 mV) was 4.60. The pIC50 (I640A, V 140 mV) was 4.55, the pIC50 (I640A, V -20 mV) was 4.44 and the pIC50 (I640A, V -40 mV) was 4.38. It also gave a pIC50 (I640A, V -60 mV) of 4.33, a pIC50 (I640A, V -80 mV) of 4.28 and a pIC50 (I640A, V -100 mV) of 4.22. For the same compound, the pIC50 (I640A, V -120 mV) was 4.18 and the pIC50 (I640A, V -140 mV) was 4.13.
